Like-named read-outs stand apart in the source and are kept apart here.

The subject of data set [1] is CCRF-CEM human lymphoblastic leukemia cells. As to the kind of experiment: In vitro cytotoxicity, XTT assay, 72-hr incubation. Type of data set: cell-based. An excerpt:
(§1) Human colon carcinoma HCT-116 cells, human prostate adenocarcinoma PC-3 and adenocarcinoma SK-OV-3 cells were obtained from American Type Culture Collection (ATCC, Rockville, Md.). Human mammary carcinoma (MX-1) tumor cells were obtained from MSKCC cell bank. The CCRF-CEM human lymphoblastic leukemia cells and their vinblastine resistant subline (CCRF-CEM/VBL, 680-fold resistance in vitro) were obtained from Dr. William Beck of the University of Illinois, Chicago, and CCRF-CEM/Taxol (330-fold resistance in vitro). Resistant cells CCRF-CEM/taxol were produced by exposing the parent cells to increasing sublethal concentration (IC50-IC90) of paclitaxel for six months.
(§2) In preparation for in vitro cytotoxicity assays, cells were cultured at an initial density 2-5×10^4 cells per milliliter. They were maintained in a 5% CO2-humidified atmosphere at 37° C. in RPMI medium 1640 (GIBCO/BRL) containing penicillin (100 units/mL), streptomycin (100 μg/mL, GIBCO/BRL), and 5% heat-inactivated FBS. For cells grown in suspension (such as CCRF-CEM and its sublines), cytotoxicity was measured, by using XTT microculture method in 96-well microtiter plates (Scudiero D A et al., Cancer Res. 1988, 48, 4827-4833). For solid tumor cells growing in a monolayer (such as MX-1 and HCT-116), cytotoxicity of the drug was determined, in duplicate, in 96-well microtiter plates by using the sulforhodamine B method (Skehan P et al., J. Natl. Cancer Inst 1990, 82, 1107-1112). For both methods, the absorbance of each well was measured with a microplate reader (Power Wave XS, Bio-Tek, Winooski, Vt.) after 72-hr incubation as described previously (Chou T-C et al., Proc. Natl. Acad. Sci. USA 2001, 98, 8113-8118). Dose-effect relationship data from 6 to 7 concentrations of each drug, in duplicate, were analyzed by using a computer program (Chou T-C et al., ComboSyn, Inc., Paramus, N J. 2005) based on the median-effect principle and plot (Chou T-C et al., Adv. Enzyme Regul. 1984, 22, 27-55; Chou T-C, Pharmacol. Rev. 2006, 58, 621-681).
(§3) The IC50 is defined by the concentration required to inhibit tumor cell growth by 50%. […] The growth inhibition of the compounds disclosed herein against human lymphoblastic leukemic cells (CCRF-CEM) and its drug-resistant sublines (resistant to vinblastine and taxol, CCRF-CEM/VBL and CCRF-CEM/taxol, respectively) is also shown in Table 5. […] Thus, the compounds disclosed herein are effective against multiple drug resistant tumors.

In data set [2] the test system is CCRF-CEM/VBL. The data set is described as follows: In vitro cytotoxicity, XTT assay, vinblastine resistant subline. It counts as cell-based, human. To be noted: for IC50: XTT assay, 72-hr incubation; for fold of cross-resistant, CCRF-CEM/VBL vs IC50 of the parent cell line: numbers in brackets.
Excerpt: as §1, §2, §3
On the technique in general: Tetrazolium dyes change colour on reduction, which living cells bring about.

The test system of data set [3] is CCRF-CEM/Taxol. As to the kind of experiment: In vitro cytotoxicity, XTT assay, taxol resistant subline. The following applies: for IC50: XTT assay, 72-hr incubation; for fold of cross-resistant, CCRF-CEM/Taxol vs IC50 of the parent cell line: numbers in brackets. It counts as cell-based, human.
Excerpt: as §1, §2, §3

For data set [4], the system named is Human colon carcinoma HCT-116 cells. As to the kind of experiment: In vitro cytotoxicity, sulforhodamine B (SRB) assay. It counts as cell-based.
Excerpt: as §1, §2, §3
Background: Sulforhodamine B stains cellular protein and so reports cell mass.

Data set [5] relates to Human mammary carcinoma (MX-1) tumor cells. Described as above. Type of data set: cell-based. To be noted: 72-hr incubation.
Excerpt: as §1, §2, §3

Data set [6] deals with human mammary carcinoma MX-1 xenograft. As to the kind of experiment: Therapeutic effect in nude mice bearing MX-1 xenograft. Type of data set: in vivo. To be noted: intravenous injection. Here is the method: FIGS. 2A-B illustrates the therapeutic effect of DA-1090, 1099, 1124, 1012 and 1107 in nude mice bearing human mammary carcinoma MX-1 xenograft (i.v. inj, n=3-4), average tumor size changes (FIG. 2A) and average body weight changes (FIG. 2B).
Athymic nude mice bearing the nu/nu gene were obtained from NCI, Frederick, Md. and used for all human tumor xenografts. Male nude mice, 6 weeks or older, weighing 20-24 g or more were used. Compounds were administered via the tail vein for i.v. injection or infusion as described previously (Chou T-C et al., Proc. Natl. Acad. Sci. USA 2001, 98, 8113-8118). Various formulations were prepared for injections into the mice for chemotherapeutic studies. As an example, a drug was dissolved in DSMO to make a 25 mg/ml fresh solution, 0.4 ml of this solution was mixed with 0.3 ml of Tween 80, plus 1.3 ml to make 2 ml of 5 mg/ml solution. Bolus injection volume was 0.1-0.2 ml per mouse.
Athymic nude mice bearing the nu/nu gene were used for human breast tumor MX-1 xenograft (FIGS. 2, 2A and 2B). Nude mice were obtained from National Cancer Institute, Frederick, Md. Male mice, 6 weeks old or older, weighing 22 g or more were used for experiments with subcutaneous tumor inoculation as described previously (Chou T-C, Pharmacol. Rev. 2006, 58, 621-681). Drug was administrated via the tail vein by iv injection. Tumor volumes were assessed by measuring length×width×height (or width) by using caliper. An example of vehicle used was 20 μL DMSO in 180 μL saline. All animal studies were conducted in accordance with the guidelines of the U.S. National Institutes of Health Guide for the Care and Use of Animals and the protocol approved by the Institutional Animal Care and Use Committee.

Where [7] appears, read: Homo sapiens, HCT-116, 72-hr incubation.
Setting [8] is: 15 mg/kg, every other two days (Q2D), two times.

Regarding `CNC(=O)OCc1c(COC(=O)NC)c(-c2ccc(OC)cc2)n2c1Cc1ccccc1-2` [DA-1012, Methylcarbamic acid 3-(4-methoxy-phenyl)-2-methylcarbamoyloxymethyl-8H-3a-azacyclopenta[a]inden-1-ylmethyl ester], the IC50 (commonly the concentration needed to halve the response being measured) in data set [1] (Homo sapiens, CCRF-CEM) turned out to be 49 nM; in data set [2] (Homo sapiens, CCRF-CEM) it was 70 nM; in data set [3] (Homo sapiens, CCRF-CEM), 58 nM; in data set [4] (setting [7]), 2740 nM; in data set [5] (Homo sapiens), 1940 nM. In data set [2], the “fold of cross-resistant, CCRF-CEM/VBL vs IC50 of the parent cell line” value (shortened to “fold of cross-resistant, CCRF-CEM/VBL”) is “[1.4x]”. Besides, the “fold of cross-resistant, CCRF-CEM/Taxol vs IC50 of the parent cell line” value (“fold of cross-resistant, CCRF-CEM/Taxol” for short) in data set [3] is “[1.2x]”. Besides, the “antitumor therapeutic effect (tumor size)” value in data set [6] (5 mg/kg, daily (QD) 3 times) was “tumor total disappearance”. The toxicity entry in data set [6] (5 mg/kg, daily (QD) 3 times) is on record as “low toxicity”.

`CNC(=O)OCc1c(COC(=O)NC)c(-c2ccccc2OC)n2c1Cc1ccccc1-2` [DA-1124, Methylcarbamic acid 3-(2-methoxyphenyl)-2-methylcarbamoyloxymethyl-8H-3a-aza-cyclopenta[a]inden-1-ylmethyl ester]: the concentration for half-maximal inhibition (IC50) came out at 136 nM in data set [1] (Homo sapiens, CCRF-CEM); 243 nM in data set [2] (Homo sapiens, CCRF-CEM); 360 nM in data set [3] (Homo sapiens, CCRF-CEM); 151 nM in data set [4] (setting [7]); 1330 nM in data set [5] (Homo sapiens). Further, the “fold of cross-resistant, CCRF-CEM/VBL” value in data set [2] was “[1.79x]”. Besides, the “fold of cross-resistant, CCRF-CEM/Taxol” value in data set [3] is “[2.65x]”. Further, in data set [6] (setting [8]), the “antitumor therapeutic effect (tumor size)” value is recorded as “tumor total disappearance”. Moreover, the toxicity result in data set [6] (setting [8]) is recorded as “low toxicity”.

Consider `COc1cccc(OC)c1-c1c(CO)c(CO)c2n1-c1ccccc1C2` [DA-1126, (3-(2,6-Dimethoxyphenyl)-2-hydroxymethyl-8H-3a-aza-cyclopenta[a]inden-1-yl)methanol], for which the IC50 in data set [1] (Homo sapiens, CCRF-CEM) was found to be 8140 nM; in data set [2] (Homo sapiens, CCRF-CEM), 251 nM; in data set [3] (Homo sapiens, CCRF-CEM), 741 nM; in data set [4] (setting [7]), 43700 nM; in data set [5] (Homo sapiens), 25500 nM. Besides, the “fold of cross-resistant, CCRF-CEM/VBL” value in data set [2] was “[0.03x]”. The “fold of cross-resistant, CCRF-CEM/Taxol” value in data set [3] is “[0.09x]”.

On to `CNC(=O)OCc1c(COC(=O)NC)c(-c2c(OC)cccc2OC)n2c1Cc1ccccc1-2` [DA-1127, Methylcarbamic acid 3-(2,6-dimethoxyphenyl)-2-methylcarbamoyloxymethyl-8H-3a-aza-cyclopenta[a]inden-1-ylmethyl ester], for which the IC50 in data set [1] (Homo sapiens, CCRF-CEM) turned out to be 640 nM; in data set [2] (Homo sapiens, CCRF-CEM), 697 nM; in data set [3] (Homo sapiens, CCRF-CEM), 616 nM; in data set [4] (setting [7]), 1110 nM; in data set [5] (Homo sapiens), 5480 nM. In data set [2], the “fold of cross-resistant, CCRF-CEM/VBL” value was “[1.08x]”. The “fold of cross-resistant, CCRF-CEM/Taxol” value in data set [3] is “[0.96x]”.

On to `COc1cc(-c2c(CO)c(CO)c3n2-c2ccccc2C3)cc(OC)c1OC` [DA-1128, (2-Hydroxymethyl-3-(3,4,5-trimethoxyphenyl)-8H-3a-aza-cyclopenta[a]inden-1-yl)-methanol], for which the IC50 in data set [1] (Homo sapiens, CCRF-CEM) was 2050 nM; in data set [2] (Homo sapiens, CCRF-CEM), 1140 nM; in data set [3] (Homo sapiens, CCRF-CEM) it was 1040 nM; in data set [4] (setting [7]), 30600 nM; in data set [5] (Homo sapiens) it was 17600 nM. Also, the “fold of cross-resistant, CCRF-CEM/VBL” value in data set [2] is “[0.56x]”. Besides, in data set [3], the “fold of cross-resistant, CCRF-CEM/Taxol” value is “[0.50x]”.

On to `CNC(=O)OCc1c(COC(=O)NC)c(-c2cc(OC)c(OC)c(OC)c2)n2c1Cc1ccccc1-2` [DA-1129, Methylcarbamic acid 3-(3,4,5-trimethoxyphenyl)-2-methylcarbamoyloxymethyl-8H-3a-aza-cyclopenta[a]inden-1-ylmethyl ester], for which the IC50 was determined as 11800 nM in data set [1] (Homo sapiens, CCRF-CEM); 8400 nM in data set [2] (Homo sapiens, CCRF-CEM); 14300 nM in data set [3] (Homo sapiens, CCRF-CEM); 1830 nM in data set [4] (setting [7]); 7250 nM in data set [5] (Homo sapiens). In addition, in data set [2], the “fold of cross-resistant, CCRF-CEM/VBL” value is “[0.71x]”. The “fold of cross-resistant, CCRF-CEM/Taxol” value in data set [3] was “[1.21x]”.

For the compound `COc1ccc(-c2c(CO)c(CO)c3n2-c2ccc(OC)cc2C3)cc1` [DA-1130, (2-hydroxymethyl-6-methoxy-3-(4′-methoxyphenyl)-8H-3a-aza-cyclopenta[a]inden-1-yl)methanol], the half-inhibitory concentration (IC50) in data set [1] was 118 nM; in data set [2] it was 61 nM; in data set [3], 130 nM; in data set [4] (72-hr incubation), 610 nM; in data set [5], 1520 nM. For the same compound, the “fold of cross-resistant, CCRF-CEM/VBL” value in data set [2] was “[0.52x]”. Moreover, the “fold of cross-resistant, CCRF-CEM/Taxol” value in data set [3] was “[1.10x]”.

Consider `CNC(=O)OCc1c(COC(=O)NC)c(-c2ccc(OC)cc2)n2c1Cc1cc(OC)ccc1-2` [DA-1131, methylcarbamic acid 6-methoxy-3-(4-methoxyphenyl)-2-methylcarbamoyl-oxymethyl-8H-3a-aza-cyclopenta[a]inden-1-ylmethyl ester], for which the concentration for half-maximal inhibition (IC50) in data set [1] (Homo sapiens, CCRF-CEM) was 62 nM; in data set [2] (Homo sapiens, CCRF-CEM), 63.9 nM; in data set [3] (Homo sapiens, CCRF-CEM), 96.2 nM; in data set [4] (setting [7]), 455 nM; in data set [5] (Homo sapiens), 878 nM. Further, the “fold of cross-resistant, CCRF-CEM/VBL” value in data set [2] was “[1.03x]”. In addition, the “fold of cross-resistant, CCRF-CEM/Taxol” value in data set [3] was “[1.55x]”.

In the case of `CC(=O)O[C@H]1C(=O)[C@@]2(C)[C@H]([C@H](OC(=O)c3ccccc3)[C@]3(O)C[C@H](OC(=O)[C@H](O)[C@@H](NC(=O)c4ccccc4)c4ccccc4)C(C)=C1C3(C)C)[C@]1(OC(C)=O)CO[C@@H]1C[C@@H]2O` [Taxol, reference compound], the IC50 in data set [1] (Homo sapiens, CCRF-CEM) worked out at 1.3 nM; in data set [2] (Homo sapiens, CCRF-CEM), 429 nM; in data set [3] (Homo sapiens, CCRF-CEM), 1270 nM; in data set [4] (setting [7]), 1.3 nM; in data set [5] (Homo sapiens), 35 nM. Moreover, the “fold of cross-resistant, CCRF-CEM/VBL” value in data set [2] is “[330x]”.

For the compound `CC[C@]1(O)C[C@@H]2CN(CCc3c([nH]c4ccccc34)[C@@](C(=O)OC)(c3cc4c(cc3OC)N(C)[C@H]3[C@@](O)(C(=O)OC)[C@H](OC(C)=O)[C@]5(CC)C=CCN6CC[C@]43[C@@H]65)C2)C1` [Vinblastine, reference compound], the half-maximal inhibitory concentration (IC50) was 0.73 nM in data set [1] (Homo sapiens, CCRF-CEM); 78 nM in data set [2] (Homo sapiens, CCRF-CEM); 496 nM in data set [3] (Homo sapiens, CCRF-CEM); 1.8 nM in data set [4] (setting [7]); 2.9 nM in data set [5] (Homo sapiens). The “fold of cross-resistant, CCRF-CEM/Taxol” value in data set [3] is “[679.5x]”.

These data come from patent US8410130B2, “Synthesis of 8H-3A-aza-cyclopenta [A ]indenes and 5,10-dihydropyrrolo[1,2-B]isoquinolines derivatives and their use as antitumor therapeutic agents” (Academia Sinica, priority 2007, dated 2013).
